Assay results as given in paper PMC10714400, “Antimicrobial Peptide–Peptoid Hybrids with and without Membrane Disruption” (ACS Infectious Diseases, 2023).
Where a SMILES comes first, the peptide text is derived from it. [ ]: non-standard residue; d: D form. Nleu = CC(C)CNCC(=O)O; Nlys = NCCCCNCC(=O)O

What was measured:
A549 cells = assay: Cell viability assay by Alamar blue; type: cell-based; details: CSV; read-out: Toxicity on A549 lung cancern cells
Protocol: The data are represented as the mean value ± SD, n = 3. […] (c) Vesicle leakage assay for a selection of compounds. Lipid vesicles made of EYPG or EYPC were suspended in a buffer (10 mM TRIS, 107 mM NaCl, pH 7.4). After 45 s, the indicated compound was added to reach the desired concentration. After 240 s, 30 μL of 1.2% TritonX-100 was added for full fluorescein release. […] See Supporting Information for the full curves, all of the data, and procedures.
HEK293 cells were cultured and maintained in DMEM high glucose (Dulbecco’s modified Eagle medium, Sigma Aldrich) medium supplemented with 10% FBS (Sigma Aldrich) and 1% penicillin/streptomycin. A549 cells were cultured and maintained in RPMI-1640 medium (Sigma Aldrich), supplemented with 10% FBS (Sigma Aldrich) and 1% penicillin/streptomycin. The cells were handled and subcultured according to the manufacturer instructions. Cells were incubated in a humidified incubator at 37 °C in the presence of 5% CO2.
Assays on HEK293, A549 cells were performed as described earlier.[74] […]

E. coli W3110 [1] = assay: NPN outer membrane permeability assay; type: cell-based, Escherichia coli
Protocol: Figure 4 Interactions of peptide–peptoid hybrids with bacterial outer and inner membranes of E. coli. (a, b) NPN outer membrane permeability assay. E. coli W3110 bacteria were treated with increasing compound concentrations in the presence of 10 μM NPN. The fluorescence intensity (λex = 340 nm, λem = 415 nm) was measured within 5 min. Data represent mean ± SD, n = 3. (c, d) DiSC3(5) inner membrane depolarization assay. E. coli W3110 bacteria were treated with increasing compound concentrations in the presence of 2 μM DiSC3(5). The fluorescence intensity (λex = 610 nm, λem = 660 nm) was measured within 5 min after treatment, and the data represent mean ± SD, n = 3.
A single colony of P. aeruginosa PAO1 and E. coli W3110 was grown overnight while being shaken (150 rpm) in LB-broth (5 mL) at 37 °C. 100 μL of the overnight culture was regrown in 10 mL of LB broth with shaking (200 rpm) to the exponential phase (OD600 = 1, corresponding to 10^9 CFU/mL). Bacteria were washed three times with HEPES buffer (5 mM HEPES, 5 mM glucose, pH 7.4), but not diluted yet to their final concentration. 200 μL of peptide samples was added to the first well of 96-well plates (black wells, flat bottom, BRAND GmbH Wertheim, Germany), 100 μL of HEPES/glucose buffer with 10 μM N-phenyl-1-naphthylamine (NPN, purchased from Acros Organics) was added in all the wells, and the compounds were diluted serially by 1/2 (add a control with a final volume of 200 μL with 10 μM NPN in buffer only). Ca. 10 min before the measurement and the final dilution of the bacteria, the plates and the 10 μM NPN in HEPES/glucose buffer (for bacteria dilution) were incubated at 37 °C (prior to the dilution of the bacteria with buffer containing NPN 10 μM). Later, the bacteria were diluted to OD600 = 0.5 with the NPN in HEPES/glucose buffer. 100 μL of the bacterial suspension was added to each well. In this case, the final OD of bacteria was 0.25, the final concentration of the desired compound 64 μg/mL, and NPN 10 μM. The control wells are buffer containing NPN (10 μM, 200 μL) and bacterial suspension containing NPN in HEPES buffer. The plate was measured with a Tecan instrument Infinite M1000 within 5 min. The plate was enabled to shake for 5 s before measurement. The excitation wavelength used was 340 ± 5 nm, and emission wavelength was 415 ± 5 nm. The assay was repeated at least three times.

P. aeruginosa PAO1 [2] = assay: DiSC3(5) inner membrane depolarization assay; type: cell-based, Pseudomonas aeruginosa; details: P. aeruginosa PAO1, 2 μM DiSC3(5)
Protocol: Figure 5 Interactions of peptide–peptoid hybrids with bacterial outer and inner membranes of P. aeruginosa. (a, b) NPN outer membrane permeability assay. P. aeruginosa PAO1 bacteria were treated with increasing compound concentrations in the presence of 10 μM NPN. The fluorescence intensity (λex = 340 nm, λem = 415 nm) was measured within 5 min. Data represent the mean ± SD, n = 3. (c, d) DiSC3(5) inner membrane depolarization assay. P. aeruginosa PAO1 cells were treated with increasing compound concentrations in the presence of 2 μM DiSC3(5). The fluorescence intensity (λex = 610 nm, λem = 660 nm) was measured within 5 min after treatment, and the data represent mean ± SD, n = 3.
A single colony of P. aeruginosa PAO1 and E. coli W3110 was grown overnight with shaking (150 rpm) in LB broth (5 mL) at 37 °C. A 100 μL portion of the overnight culture was regrown in 10 mL of LB broth with shaking (200 rpm) to the exponential phase (OD600 = 1, corresponding to 10^9 CFU/mL). Bacteria were washed once with HEPES buffer (5 mM HEPES, 5 mM glucose, pH 7.4) and diluted to an OD600 = 0.5. Stock solution of 10 mM of 3,3′-dipropylthiadicarbocyanine iodide (DiSC3(5), purchased from Sigma) was prepared in DMSO. Stock solutions of 2 mg/mL of the compounds were prepared in sterilized milli-Q water and diluted to the beginning concentration of 128 μg/mL in 200 μL of HEPES buffer containing 4 μM of the fluorescent probe DiSC3(5). The diluted samples were added to the first well of 96-well plates (black wells, flat bottom, BRAND GmbH Wertheim, Germany) and diluted serially by 1/2. 100 μL of the bacterial suspension in HEPES buffer (without fluorophore) was added to each well. In this case, the final OD of bacteria was 0.25, the final concentration of peptide in the first column was 64 μg/mL, and DiSC3(5) was 2 μM. The control wells are buffer containing DiSC3(5) and bacterial suspension containing DiSC3(5) in HEPES buffer. The plate was measured with a Tecan instrument Infinite M1000 within 5 min. […] The assay was measured in triplicate and repeated at least two times.[65],[75]

P. aeruginosa PAO1 [3] = assay: Time–kill assay; type: cell-based, Pseudomonas aeruginosa
Text: (§1) Figure 1 Killing profile of selected compounds on bacteria a) against E. coli W3110 measured in full MH at pH 7.4, b) against P. aeruginosa PAO1 in full MH at pH 7.4, c) against E. coli W3110 in diluted MH at pH 8.5, and d) against P. aeruginosa PAO1 in dilute MH at pH 8.5. The assay was repeated twice in triplicate, and the data represent the mean ± SD, n = 6.

E. coli W3110 [4] = assay: Time–kill assay; type: cell-based, Escherichia coli
Text: as §1

[5] = P. aeruginosa PAO1, dilute MH at pH 8.5
[6] = E. coli W3110, diluted MH at pH 8.5

| Compound | IC50 (A549 cells) [µM] | Outer membrane permeabilization (NPN) (E. coli W3110 [1]; not told) | Inner membrane depolarization (DiSC3(5)) (P. aeruginosa PAO1 [2]) | further results |
| --- | --- | --- | --- | --- |
| CC(C)C[C@H](NC(=O)[C@H](CCCCN)NC(=O)CNCCCCN)C(=O)N[C@@H](CC(C)C)C(=O)N[C@@H](CCCCN)C(=O)N[C@@H](CC(C)C)C(=O)N[C@@H](CC(C)C)C(=O)N[C@@H](CCCCN)C(=O)N[C@@H](CC(C)C)C(=O)N[C@@H](CC(C)C)C(=O)N(CC(N)=O)CC(C)C [EB1] (H-[Nlys]KLLKLLKLL[Nleu]-NH2; N-terminus assumed) | 69 ± 2 | – | – | – |
| CC(C)C[C@H](NC(=O)[C@H](CC(C)C)NC(=O)[C@H](CC(C)C)NC(=O)[C@H](CCCCN)NC(=O)[C@H](CC(C)C)NC(=O)[C@H](CC(C)C)NC(=O)CN(CCCCN)C(=O)CN(CC(C)C)C(=O)CN(CC(C)C)C(=O)CN(CCCCN)C(=O)CNCCCCN)C(N)=O [EB5, kkllkLLKLLL] (H-[Nlys][Nlys][Nleu][Nleu][Nlys]LLKLLL-NH2) | – | permeabilized the outer membrane | – | – |
| CC(C)C[C@H](NC(=O)[C@H](CC(C)C)NC(=O)[C@H](CC(C)C)NC(=O)[C@H](CCCCN)NC(=O)[C@H](CC(C)C)NC(=O)[C@H](CC(C)C)NC(=O)CN(CCCCN)C(=O)[C@H](CC(C)C)NC(=O)[C@H](CC(C)C)NC(=O)CN(CCCCN)C(=O)CNCCCCN)C(N)=O [EB6, kkLLkLLKLLL] (H-[Nlys][Nlys]LL[Nlys]LLKLLL-NH2) | 19 ± 1 | permeabilized the outer membrane | strongly depolarized the inner membrane | Time–kill, killing profile (P. aeruginosa PAO1 [3]; P. aeruginosa PAO1, full MH at pH 7.4): completely killed; Time–kill, killing profile (E. coli W3110 [4]; E. coli W3110, full MH at pH 7.4): completely killed |
| CC(C)C[C@H](NC(=O)CN(CC(C)C)C(=O)[C@H](CC(C)C)NC(=O)CN(CCCCN)C(=O)[C@H](CC(C)C)NC(=O)CN(CC(C)C)C(=O)[C@H](CCCCN)NC(=O)CN(CC(C)C)C(=O)[C@H](CC(C)C)NC(=O)CN(CCCCN)C(=O)[C@@H](N)CCCCN)C(N)=O [EB9, KkLlKlLkLlL] (H-K[Nlys]L[Nleu]K[Nleu]L[Nlys]L[Nleu]L-NH2) | – | significant outer membrane permeabilization | partly depolarized the inner membrane | Time–kill, killing profile (P. aeruginosa PAO1 [3]; [5]): killed P. aeruginosa, however at a rather slow rate; Time–kill, killing profile (E. coli W3110 [4]; [6]): Bacteria could still be detected after 6 h |
| CC(C)CN(CC(N)=O)C(=O)CN(CC(C)C)C(=O)CN(CC(C)C)C(=O)CN(CCCCN)C(=O)CN(CC(C)C)C(=O)CN(CC(C)C)C(=O)CN(CCCCN)C(=O)CN(CC(C)C)C(=O)CN(CC(C)C)C(=O)CN(CCCCN)C(=O)CNCCCCN [EB11, kkllkllklll] (H-[Nlys][Nlys][Nleu][Nleu][Nlys][Nleu][Nleu][Nlys][Nleu][Nleu][Nleu]-NH2) | – | – | partly depolarized the inner membrane | Time–kill, killing profile (P. aeruginosa PAO1 [3]; [5]): killed P. aeruginosa, however at a rather slow rate; Time–kill, killing profile (E. coli W3110 [4]; [6]): Bacteria could still be detected after 6 h; Outer membrane permeabilization (NPN) (E. coli W3110 [1]; E. coli W3110, 10 μM NPN): significant outer membrane permeabilization |
| CC(C)C[C@H](NC(=O)[C@H](CC(C)C)NC(=O)[C@H](CC(C)C)NC(=O)[C@@H](CCCCN)NC(=O)[C@H](CC(C)C)NC(=O)[C@H](CC(C)C)NC(=O)[C@@H](CCCCN)NC(=O)[C@H](CC(C)C)NC(=O)[C@H](CC(C)C)NC(=O)[C@@H](CCCCN)NC(=O)[C@H](N)CCCCN)C(N)=O [ln69, kkLLkLLkLLL, reference compound] (H-[dK][dK]LL[dK]LL[dK]LLL-NH2) | 21 ± 3 | – | – | – |
| H-KKLLKLLKLLL-NH2 [ln65, reference compound] | 20 ± 1 | – | – | – |
